Test results published in patent publication US10039761B2, “Co-crystals and pharmaceutical compositions comprising the same” (Vertex Pharmaceuticals Incorporated, priority 2013, dated 2018).

How the values were obtained:
[1] = Blood exposure in OD26749 bridging study; type: in vivo, nude mice; conditions: nude, mouse, whole blood; 100 mg/kg PO bid (0 and 4 h) combination groups with 2 Gy whole body IR
[2] = Body weight in OE-19 xenograft studies; type: in vivo
Experimental: The OE-19 cell line xenograft model was used to evaluate the efficacy of Compounds (1) and (2) alone and in combination with IR. Two cycles of treatment were administered (Day 0 and Day 7) as performed in the OD26749 model above.

[3] = test system: OD26749 primary NSCLC xenograft; assay: OD26749 primary NSCLC xenograft efficacy with whole body IR; type: in vivo, nude mice
Experimental: The in vivo efficacies of Compounds (1) and (2) in combination with whole body IR were examined in the OD26749 primary NSCLC (non-small cell lung cancer) and the OE-19 GEJ cell line xenograft models. In these studies, Compounds (1) and (2) were formulated with 16% captisol/1% PVP/1% HPMC E5 pH2.
The in vivo efficacy of Compound (1) was evaluated in the primary OD26749 NSCLC subcutaneous xenograft model. […] […] Compound (1) was administered PO (tid at 0, 3, and 7 h) at 100 mg/kg alone or with a single 2 Gy dose of whole body IR at 3.25 h. […] Compound (1) in combination with 2 Gy whole body IR induced significant tumor regression (% T/Ti of −75; P<0.01) compared to IR alone.
The efficacies of Compounds (1) and (2) in combination with whole body IR (2 Gy) were evaluated in the OD26749 primary NSCLC xenograft model at a Compound ([…]) and Compound (2) dose levels of 50 mg/kg and 100 mg/kg PO bid (0 and 4 h). Two cycles of whole body IR (2 Gy) were given 15 min after the first compound administration (0.25 hour). Control animals were administered vehicle PO bid (0 and 4 h). […]
(§1) In Tables 14 and 15, for example, PO bid (0, 4 h) indicates Compound (2) is administered twice (bid) at time point 0 and then 4 hours after; IR (0.25 h) qdx3 indicates radiation is administered 15 minutes (0.25 h) after the administration of Compound (2) (0 h), and once a day for 3 days (qdx3); q7dx2 indicates once a week for two weeks; qod indicates every other day twice (e.g., Day 1 and Day 3); and paclitaxel q7dx3 (−0.25 h), carboplatin q7dx3 (−0.25 h) indicates administration of paclitaxel and carboplatin 15 minutes prior to the administration of Compound (2), followed by additional administration of Compound (2) after 4 hours after the first administration of Compound (2).

[4] = Body weight in LU-01-0030 xenograft studies; type: in vivo, mice
Experimental: The in vivo efficacies of Compounds (1) and (2) were evaluated alone and in combination with three consecutive days of focused IR in the primary LU-01-0030 NSCLC subcutaneous xenograft model. The dose-dependent anti-tumor activity of Compound (2) alone and in combination with focused beam IR was evaluated in the LU-01-0030 model. […] Mice in the combination treatment groups were monitored (without treatment) for up to 90 days as some mice had no evidence of tumor burden.

[5] = test system: ST-02-0004 primary GEJ tumor xenograft; assay: ST-02-0004 primary GEJ tumor xenograft efficacy with focused IR; type: in vivo
Experimental: The in vivo activities of Compounds (1) and (2) were compared in combination with focused beam IR in a primary gastric cancer subcutaneous xenograft model. In the ST 02 0004 model, focused IR was administered on three consecutive days alone and in combination with Compound (1) or Compound (2).
The anti-tumor activity of Compound (2) in combination with focused-beam IR and the standard of care agents, paclitaxel and carboplatin, was also evaluated in the ST 02 0004 model. Treatment with paclitaxel, carboplatin, and IR was administered once per week for three weeks alone or in combination with Compound (2).
as §1

primary human tumors = assay: Primary tumor chemosensitivity assay (TCA), Cell Titer-Glo, Bliss; type: cell-based
Experimental: Primary human tumors tested in vitro may provide a better indicator of efficacy of DNA PK inhibition than immortalized cancer cell lines due to their increased heterogeneity and closer proximity to the patient tumor from which they were derived. […] Dissociated cells from mouse-passaged tumors were cultured for 6 days after combination exposure and then assessed for viability using the Cell Titer-Glo assay. The Bliss Additivity statistical model was used to determine the degree of synergy, additivity, or antagonism of each combination treatment.

[6] = Body weight in OD26749 xenograft studies; type: in vivo, nude mice; conditions: bridging study; Compound (1) PO 100 mg/kg bid (0, 4 h), 2 Gy ([…]) qdx3; Day 1
[7] = test system: LU-01-0030 primary NSCLC subcutaneous xenograft; assay: LU-01-0030 primary NSCLC xenograft efficacy with focused IR; type: in vivo, mice
Experimental: The in vivo efficacies of Compounds (1) and (2) were evaluated alone and in combination with three consecutive days of focused IR in the primary LU-01-0030 NSCLC subcutaneous xenograft model. The dose-dependent anti-tumor activity of Compound (2) alone and in combination with focused beam IR was evaluated in the LU-01-0030 model.
as §1

## CNC(=O)c1ccnc2c([C@H](C)CNc3cc(-c4cnc(C)nc4)ncn3)cccc12 [Compound (1), (S)-N-methyl-8-(1-((2′-methyl-[4,5′-bipyrimidin]-6-yl)amino)propan-2-yl)quinoline-4-carboxamide]
[1]
  AUC: 65800 ng·h/mL
[2]; PO 100 mg/kg bid (0, 4 h) qd7x2, 2 Gy IR qd7x2 ([…]), Day 1
  Max. body weight loss (%): −3.50%
[2]; PO 100 mg/kg bid (0, 4 h) qd7x 2, no IR, Day 8
  Max. body weight loss (%): −1.70%
[3]; Compound (1) single agent group, 100 mg/kg tid, twice one week apart
  time to tumor doubling (TTD): 2 to 3 days
[3]; PO 50 mg/kg bid (0, 4 h), 2 Gy IR ([…]) q7dx2
  % T/C (Day 29): 11.7%
[3]; PO 100 mg/kg bid (0, 4 h), 2 Gy IR ([…]) q7dx2
  % T/Ti (Day 29): −3.1%
[3]; PO 100 mg/kg tid (0, 3, 7 h) q7dx2, 2 Gy q7dx2 (3.25 h) whole body IR
  % T/Ti (Day 16): −75%
[3]; PO 100 mg/kg tid (0, 3, 7 h) q7dx2, no IR
  % T/C (Day 16): 74%
[3]; combination group: 100 mg/kg tid with 2 Gy whole body IR, given twice one week apart
  time to tumor doubling (TTD): 33.4 days
[4]; Day 24 study, PO 10 mg/kg bid (0, 4 h) qdx3, 2 Gy IR qdx3 ([…]), Day 4
  Max. body wt loss (%): −1.46%
[4]; Day 24 study, PO 25 mg/kg bid (0, 4 h) qdx3, 2 Gy IR qdx3 ([…]), Day 4
  Max. body wt loss (%): −2.03%
[4]; Day 24 study, PO 50 mg/kg bid (0, 4 h) qdx3, 2 Gy IR qdx3 ([…]), Day 4
  Max. body wt loss (%): −1.19%
[4]; Day 24 study, PO 50 mg/kg bid (0, 4 h) qodx2, 2 Gy IR qdx3 ([…]), Day 4
  Max. body wt loss (%): −1.59%
[4]; Day 30 study, PO 100 mg/kg bid (0, 4 h) qdx3, 2 Gy IR ([…]) qdx3, Day 4
  Max. body wt loss (%): −1.42%
[4]; Day 30 study, PO 100 mg/kg tid (0, 3, 7 h) qdx3, 2 Gy IR ([…]) qdx3, Day 4
  Max. body wt loss (%): −1.58%
[4]; Day 30 study, PO 100 mg/kg tid (0, 3, 7 h) qdx5, 2 Gy IR ([…]) qdx3, Day 4
  Max. body wt loss (%): −1.68%
[4]; Day 30 study, PO 100 mg/kg tid (0, 3, 7 h) qdx5, no IR, Day 6
  Max. body wt loss (%): −0.63%
[4]; Day 31 study, PO 10 mg/kg bid (0, 4 h) qdx3, 2 Gy IR ([…]), Day 3
  Max. body wt loss (%): −3.33%
[4]; Day 31 study, PO 50 mg/kg bid (0, 4 h) qdx1, 2 Gy IR ([…]), Day 1
  Max. body wt loss (%): −0.59%
[4]; Day 31 study, PO 50 mg/kg bid (0, 4 h) qdx2, 2 Gy IR ([…]), Day 1
  Max. body wt loss (%): −2.11%
[4]; Day 31 study, PO 50 mg/kg bid (0, 4 h) qdx3, 2 Gy IR ([…]), Day 3
  Max. body wt loss (%): −0.94%
[4]; Day 31 study, PO 50 mg/kg qdx3, 2 Gy IR ([…]), Day 1
  Max. body wt loss (%): −2.07%
[4]; first Day 27 study, PO 25 mg/kg bid (0, 4 h) qdx3, 2 Gy ([…]) IR qdx3, Day 2
  Max. body wt loss (%): −5.81%
[4]; first Day 27 study, PO 50 mg/kg bid (0, 4 h) qdx3, 2 Gy ([…]) IR qdx3, Day 3
  Max. body wt loss (%): −5.70%
[4]; first Day 27 study, PO 100 mg/kg bid (0, 4 h) qdx3, 2 Gy ([…]) IR qdx3, Day 3
  Max. body wt loss (%): −2.87%
[4]; first Day 27 study, PO 100 mg/kg qdx3, 2 Gy ([…]) IR qdx3, Day 2
  Max. body wt loss (%): −3.68%
[4]; second Day 27 study, PO 10 mg/kg bid (0, 4 h) qdx3, 2 Gy ([…]) IR qdx3, Day 2
  Max. body wt loss (%): −5.81%
[4]; second Day 27 study, PO 25 mg/kg bid (0, 4 h) qdx3, 2 Gy ([…]) IR qdx3, Day 3
  Max. body wt loss (%): −5.70%
[4]; second Day 27 study, PO 50 mg/kg bid (0, 4 h) qdx2, 2 Gy ([…]) IR qdx3, Day 3
  Max. body wt loss (%): −2.87%
[4]; second Day 27 study, PO 50 mg/kg bid (0, 4 h) qdx3, 2 Gy ([…]) IR qdx3, Day 2
  Max. body wt loss (%): −3.68%
[5]; Compound (1) PO 100 mg/kg bid (0, 4 h) qdx3, 2 Gy IR ([…]) focused
  % T/Ti (Day 34): −2.8%
[5]; Compound (1) PO 100 mg/kg qdx3, no IR
  % T/C (Day 34): 95.6%
Primary human tumors; Compound (1) (10× and 30× IC50) with bleomycin or radiation
  tumors additive or synergistic / tumors tested: 29/29
Primary human tumors; Compound (1) with 5-FU
  tumors with additivity / tumors tested: 5/5
Primary human tumors; Compound (1) with bleomycin
  tumors with strong synergy / tumors tested: 9/29
Primary human tumors; Compound (1) with carboplatin
  tumors with synergy or additivity / tumors tested: 5/5
Primary human tumors; Compound (1) with cisplatin
  tumors with antagonism: one tumor showed antagonism
  tumors with synergy or additivity / tumors tested: 9/10
Primary human tumors; Compound (1) with doxorubicin
  tumors with additivity / tumors tested: 1/1
Primary human tumors; Compound (1) with etoposide
  tumors with strong synergy / tumors tested: 4/4
Primary human tumors; Compound (1) with gemcitabine
  tumors with additivity / tumors tested: 2/4
  tumors with antagonism / tumors tested: 2/4
Primary human tumors; Compound (1) with paclitaxel
  tumors with additivity / tumors tested: 1/5
  tumors with antagonism / tumors tested: 1/5
Primary human tumors; Compound (1) with radiation
  tumors with strong synergy / tumors tested: 3/8
[6]
  Max. body wt loss (%): −2.40%
[7]; PO 10 mg/kg bid (0, 4 h) qdx3, 2 Gy IR ([…])
  % T/Ti (Day 31): −5.3%
[7]; PO 10 mg/kg bid (0, 4 h) qdx3, 2 Gy IR qdx3 ([…])
  % T/Ti (Day 24): −29.8%
[7]; PO 25 mg/kg bid (0, 4 h) qdx3, 2 Gy IR qdx3 ([…])
  % T/Ti (Day 24): −75.2%
[7]; PO 50 mg/kg bid (0, 4 h) qdx1, 2 Gy IR ([…])
  % T/C (Day 31): 7.2%
[7]; PO 50 mg/kg bid (0, 4 h) qdx2, 2 Gy IR ([…])
  % T/Ti (Day 31): −1.7%
[7]; PO 50 mg/kg bid (0, 4 h) qdx3, 2 Gy IR ([…])
  % T/Ti (Day 31): −14.1%
[7]; PO 50 mg/kg bid (0, 4 h) qdx3, 2 Gy IR qdx3 ([…])
  % T/Ti (Day 24): −87.6%
[7]; PO 50 mg/kg bid (0, 4 h) qodx2, 2 Gy IR qdx3 ([…])
  % T/Ti (Day 24): −79.9%
[7]; PO 50 mg/kg qdx3, 2 Gy IR ([…])
  % T/C (Day 31): 4.5%
[7]; PO 100 mg/kg bid (0, 4 h) qdx3, 2 Gy IR ([…]) qdx3
  % T/Ti (Day 30): −85.6%
[7]; PO 100 mg/kg tid (0, 3, 7 h) qdx3, 2 Gy IR ([…]) qdx3
  % T/Ti (Day 30): −90.6%
[7]; PO 100 mg/kg tid (0, 3, 7 h) qdx5, 2 Gy IR ([…]) qdx3
  % T/Ti (Day 30): −91.6%
[7]; PO 100 mg/kg tid (0, 3, 7 h) qdx5, no IR
  % T/C (Day 30): 79.1%
[7]; first Day 27 study, PO 25 mg/kg bid (0, 4 h) qdx3, 2 Gy ([…]) IR qdx3
  % T/Ti (Day 27): −80.3%
[7]; first Day 27 study, PO 50 mg/kg bid (0, 4 h) qdx3, 2 Gy ([…]) IR qdx3
  % T/Ti (Day 27): −87.8%
[7]; first Day 27 study, PO 100 mg/kg bid (0, 4 h) qdx3, 2 Gy ([…]) IR qdx3
  % T/Ti (Day 27): −90.1%
[7]; first Day 27 study, PO 100 mg/kg qdx3, 2 Gy ([…]) IR qdx3
  % T/Ti (Day 27): −76.5%
[7]; second Day 27 study, PO 10 mg/kg bid (0, 4 h) qdx3, 2 Gy ([…]) IR qdx3
  % T/Ti (Day 27): −80.3%
[7]; second Day 27 study, PO 25 mg/kg bid (0, 4 h) qdx3, 2 Gy ([…]) IR qdx3
  % T/Ti (Day 27): −87.8%
[7]; second Day 27 study, PO 50 mg/kg bid (0, 4 h) qdx2, 2 Gy ([…]) IR qdx3
  % T/Ti (Day 27): −90.1%
[7]; second Day 27 study, PO 50 mg/kg bid (0, 4 h) qdx3, 2 Gy ([…]) IR qdx3
  % T/Ti (Day 27): −76.5%
